Patent publication US20240226115A1, “AXL INHIBITOR COMPOUNDS” (ARCUS BIOSCIENCES, INC., priority 2021, published 2024)

How the values were obtained:
Axl [1] = target: T1, Axl (Homo sapiens, UniProt P30530); experiment: HTRF KinEASE-TK biochemical potency, AXL; parameters: purchased Invitrogen; settings: 5 nM AXL, 700 μM ATP
T1 sequence (P30530 26-894): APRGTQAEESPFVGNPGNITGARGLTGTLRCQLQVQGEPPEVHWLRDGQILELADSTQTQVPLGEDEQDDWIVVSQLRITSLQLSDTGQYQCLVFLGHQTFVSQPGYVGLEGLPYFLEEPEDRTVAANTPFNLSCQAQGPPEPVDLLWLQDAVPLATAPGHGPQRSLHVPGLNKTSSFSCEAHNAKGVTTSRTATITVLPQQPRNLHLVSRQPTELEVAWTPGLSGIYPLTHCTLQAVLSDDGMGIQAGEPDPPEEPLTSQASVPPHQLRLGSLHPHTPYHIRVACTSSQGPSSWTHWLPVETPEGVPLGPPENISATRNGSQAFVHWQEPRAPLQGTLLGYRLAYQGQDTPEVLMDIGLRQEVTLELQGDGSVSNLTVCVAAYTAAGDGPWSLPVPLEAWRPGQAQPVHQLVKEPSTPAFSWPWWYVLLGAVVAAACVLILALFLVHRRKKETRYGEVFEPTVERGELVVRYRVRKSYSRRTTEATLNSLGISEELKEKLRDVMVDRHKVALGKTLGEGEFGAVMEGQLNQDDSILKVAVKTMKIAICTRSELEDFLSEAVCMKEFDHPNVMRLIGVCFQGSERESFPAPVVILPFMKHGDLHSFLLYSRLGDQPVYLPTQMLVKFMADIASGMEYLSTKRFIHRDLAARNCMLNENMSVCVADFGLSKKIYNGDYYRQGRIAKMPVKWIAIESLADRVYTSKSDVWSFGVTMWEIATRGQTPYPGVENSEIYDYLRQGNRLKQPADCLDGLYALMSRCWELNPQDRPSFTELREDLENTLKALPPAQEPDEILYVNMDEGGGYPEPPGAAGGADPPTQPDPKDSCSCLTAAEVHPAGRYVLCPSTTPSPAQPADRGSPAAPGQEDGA
Experimental: Purified recombinant human AXL, TYRO3 and MER proteins were purchased from Invitrogen™. 10 nM AXL, 2 nM TYRO3 or MER were incubated with varying concentrations of compounds in 50 mM HEPES, pH 7.4, 10 mM MgCl2, 0.01% BSA, 1 mM DTT and 2% DMSO in a total volume of 20 μl in a 384-well microplate (Corning™ #3640) at RT for 1 h. The AXL, TYRO3 and MER enzymatic reaction was initiated by transferring 10 μl of enzyme and compound mixture into 10 μl of 1.6 μM TK Substrate-biotin (HTRF® KinEASE-TK kit, Cisbio) and 1400 μM ATP pre-incubated in 50 mM HEPES, pH 7.4, 10 mM MgCl2, 0.01% BSA, 1 mM DTT in a 384-well microplate (Corning™ #3640) at RT, giving the final reaction conditions: 5 nM AXL, 1 nM TYRO3 or MER, 800 nM TK Substrate-biotin and 700 μM ATP in 50 mM HEPES, pH 7.4, 10 mM MgCl2, 0.01% BSA, 1 mM DTT and 1% DMSO with varying concentrations of compounds. Following 2 h incubation at RT, the AXL, TYRO3 and MER enzymatic reaction was stopped by transfer of 10 μl of reaction into 10 μl of detection mix (400 nM Streptavidin-XL665, 200-fold dilution TK Antibody-Cryptate and detection buffer, HTRF® KinEASE-TK kit, Cisbio) in a white 384-well microplate (Perkin Elmer, OptiPlate 384). After 1 h incubation at RT, the plate was put into a plate reader (Evision) to read at 665/620 nm (acceptor/donor) for HTRF. The value of the DMSO blank (MIN inhibition=100% activity) was used as a negative control. The positive control was established by adding 5 μl of enzyme and DMSO mixture into 10 μl of detection mix followed by addition of 5 μl of TK Substrate-biotin and ATP mixture (MAX inhibition=0% activity). To calculate the percent activity, Equation 1 was used. Ratio665/620 is the value at a given compound concentration: […]

Axl [2] = target: T1, Axl; experiment: Axl NanoBRET intracellular kinase assay (Cell Binding); parameters: host or cells: HEK-293; settings: HEK-293 cells transfected with Axl-NanoLuc fusion vector; displacement of K-5 NanoBRET tracer
Experimental: Axl NanoBRET™ intracellular kinase assay (Promega, N2540) was performed according to manufacturer's recommendation. In brief, HEK-293 cells are transiently transfected with Axl-NanoLuc fusion vector (Promega, NV1071), utilizing Fugene HD transfection reagent (Promega, E2311) a day before experiment following manufacturer's recommendation.
The day of the assay, the cells were collected and resuspended in Opti-MEM media (ThermoFisher, 31985070) at 2e5 cells/mL concentration. Testing compounds were serial diluted and dispensed into a white 384 well polystyrene plate at 200 nL in 100% DMSO. 40 μL of resuspended cells is then added per well for a final condition of 8K cells/well with 0.5% DMSO. After one-hour compound pre-incubation at 37° C. and 5% CO2, cells were further incubated with 0.35 μM K-5 NanoBRET tracer for two-hours at 37° C. and 5% CO2. […] of 3× substrate plus Inhibitor solution was prepared according to kits manual and added to the cells followed by a 30 second pulse centrifugation spin. The plate was then immediately read utilizing an Envision (Perkin Elmer) plate reader. The BRET signal is measured by taking the ratio of the emissions reading at 610 nm and 450 nm. Compound binding is based on the decrease BRET signal caused by the displacement of the K-5 tracer. […] IC50 value of compounds was determined by 4-parameter non-linear regression fitting of percent activity in GraphPad Prism software.

Compound | IC50 (Axl [1]) | IC50 (Axl [2])
CC(C)(O)C(=O)N1CCc2ccc(-c3cnc4[nH]nc(-c5ccc6c(c5)OCCNC6=O)c4c3)cc2CC1 [Example 19, 8-(5-(3-(2-Hydroxy-2-methylpropanoyl)-2,3,4,5-tetrahydro-1H-benzo[d]azepin-7-yl)-1H-pyrazolo[3,4-b]pyridin-3-yl)-3,4-dihydrobenzo[f][1,4]oxazepin-5(2H)-one] | < 100 nM | 100 to 1000 nM
O=C1NCCOc2cc(-c3n[nH]c4ncc(-c5ccc6c(c5)CCN(C5CC5)CC6)cc34)ccc21 [Example 20, 8-(5-(3-Cyclopropyl-2,3,4,5-tetrahydro-1H-benzo[d]azepin-7-yl)-1H-pyrazolo[3,4-b]pyridin-3-yl)-3,4-dihydrobenzo[f][1,4]oxazepin-5(2H)-one] | < 100 nM | 100 to 1000 nM
O=C1NCCOc2cc(-c3n[nH]c4ncc(-c5ccc6c(c5)CCN(C5CC5)C6)cc34)ccc21 [Example 21, 8-(5-(2-Cyclopropyl-1,2,3,4-tetrahydroisoquinolin-6-yl)-1H-pyrazolo[3,4-b]pyridin-3-yl)-3,4-dihydrobenzo[f][1,4]oxazepin-5(2H)-one] | < 100 nM | 100 to 1000 nM
CC1(N2CCCC2)CCc2ccc(-c3cnc4[nH]nc(-c5ccc6c(c5)OCCNC6=O)c4c3)cc2CC1 (stereo not drawn) [Example 22, 8-{5-[7-Methyl-7-(pyrrolidin-1-yl)-6,7,8,9-tetrahydro-5H-benzo[7]annulen-2-yl]-1H-pyrazolo[3,4-b]pyridin-3-yl}-2,3,4,5-tetrahydro-1,4-benzoxazepin-5-one] | < 100 nM | < 100 nM
C[C@@H]1CCCN1C1(C)CCc2ccc(-c3cnc4[nH]nc(-c5ccc6c(c5)OCCNC6=O)c4c3)cc2CC1 (stereo partly drawn) [Example 23, 8-(5-{7-Methyl-7-[(2R)-2-methylpyrrolidin-1-yl]-6,7,8,9-tetrahydro-5H-benzo[7]annulen-2-yl}-1H-pyrazolo[3,4-b]pyridin-3-yl)-2,3,4,5-tetrahydro-1,4-benzoxazepin-5-one] | < 100 nM | < 100 nM
C[C@H]1CCCN1C1(C)CCc2ccc(-c3cnc4[nH]nc(-c5ccc6c(c5)OCCNC6=O)c4c3)cc2CC1 (stereo partly drawn) [Example 24, 8-(5-{7-Methyl-7-[(2S)-2-methylpyrrolidin-1-yl]-6,7,8,9-tetrahydro-5H-benzo[7]annulen-2-yl}-1H-pyrazolo[3,4-b]pyridin-3-yl)-2,3,4,5-tetrahydro-1,4-benzoxazepin-5-one] | < 100 nM | < 100 nM
CC[C@@H]1CCCN1C1CCc2ccc(-c3cnc4[nH]nc(-c5ccc6c(c5)OCCNC6=O)c4c3)cc2CC1 (stereo partly drawn) [Example 25, 8-(5-{7-[(2R)-2-Ethylpyrrolidin-1-yl]-6,7,8,9-tetrahydro-5H-benzo[7]annulen-2-yl}-1H-pyrazolo[3,4-b]pyridin-3-yl)-2,3,4,5-tetrahydro-1,4-benzoxazepin-5-one] | < 100 nM | < 100 nM
CC1(O)CCOc2cc(-c3n[nH]c4ncc(-c5ccc6c(c5)CCN(C5CCCC5)CC6)cc34)ccc21 (stereo not drawn) [Example 26, 7-[5-(3-Cyclopentyl-2,3,4,5-tetrahydro-1H-3-benzazepin-7-yl)-1H-pyrazolo[3,4-b]pyridin-3-yl]-4-methyl-3,4-dihydro-2H-1-benzopyran-4-ol] | < 100 nM | 100 to 1000 nM
CC1(O)CCCCc2cc(-c3n[nH]c4ncc(-c5ccc6c(c5)CCN(C5CCCC5)CC6)cc34)ccc21 (stereo not drawn) [Example 27, 2-[5-(3-Cyclopentyl-2,3,4,5-tetrahydro-1H-3-benzazepin-7-yl)-1H-pyrazolo[3,4-b]pyridin-3-yl]-5-methyl-6,7,8,9-tetrahydro-5H-benzo[7]annulen-5-ol] | < 100 nM | 100 to 1000 nM
CC1(O)CCCOc2cc(-c3n[nH]c4ncc(-c5ccc6c(c5)CCN(C5CCCC5)CC6)cc34)ccc21 (stereo not drawn) [Example 28, (8-[5-(3-Cyclopentyl-2,3,4,5-tetrahydro-1H-3-benzazepin-7-yl)-1H-pyrazolo[3,4-b]pyridin-3-yl]-5-methyl-2,3,4,5-tetrahydro-1-benzoxepin-5-ol)] | < 100 nM | 100 to 1000 nM
C[C@@H]1CCCN1C1CCc2ccc(-c3cnc4[nH]nc(-c5ccc6c(c5)OCCC6(C)O)c4c3)cc2CC1 (stereo partly drawn) [Example 29, 4-Methyl-7-(5-{7-[(2R)-2-Methylpyrrolidin-1-yl]-6,7,8,9-tetrahydro-5H-benzo[7]annulen-2-yl}-1H-pyrazolo[3,4-b]pyridin-3-yl)-3,4-dihydro-2H-1-benzopyran-4-ol] | < 100 nM | < 100 nM
CC1(O)CCc2cc(-c3n[nH]c4ncc(-c5ccc6c(c5)CC[C@@H](N5CCCC5)CC6)cc34)ccc21 (stereo partly drawn) [Example 30, 1-Methyl-5-{5-[(7S)-7-(pyrrolidin-1-yl)-6,7,8,9-tetrahydro-5H-benzo[7]annulen-2-yl]-1H-pyrazolo[3,4-b]pyridin-3-yl}-2,3-dihydro-1H-inden-1-ol] | < 100 nM | < 100 nM
CC1(O)CCOc2cc(-c3n[nH]c4ncc(-c5ccc6c(c5)CC[C@@H](N5CCCC5)CC6)cc34)ccc21 (stereo partly drawn) [Example 31, 4-Methyl-7-{5-[(7S)-7-(pyrrolidin-1-yl)-6,7,8,9-tetrahydro-5H-benzo[7]annulen-2-yl]-1H-pyrazolo[3,4-b]pyridin-3-yl}-3,4-dihydro-2H-1-benzopyran-4-ol] | < 100 nM | < 100 nM
CC1(C)NS(=O)(=O)c2cc(-c3n[nH]c4ncc(-c5ccc6c(c5)CCC(N5CCCC5)CC6)cc34)ccc21 (stereo not drawn) [Example 32, 3,3-Dimethyl-6-{5-[7-(pyrrolidin-1-yl)-6,7,8,9-tetrahydro-5H-benzo[7]annulen-2-yl]-1H-pyrazolo[3,4-b]pyridin-3-yl}-2,3-dihydro-1λ^6,2-benzothiazole-1,1-dione] | < 100 nM | < 100 nM
C[C@@H]1CCCN1C1CCc2ccc(-c3cnc4[nH]nc(-c5ccc6c(c5)S(=O)(=O)NC6(C)C)c4c3)cc2CC1 (stereo partly drawn) [Example 33, 3,3-Dimethyl-6-(5-{7-[(2R)-2-methylpyrrolidin-1-yl]-6,7,8,9-tetrahydro-5H-benzo[7]annulen-2-yl}-1H-pyrazolo[3,4-b]pyridin-3-yl)-2,3-dihydro-1λ^6,2-benzothiazole-1,1-dione] | < 100 nM | < 100 nM
